Results on four compounds are retold here after ChEMBL document CHEMBL6127016, “Design and synthesis of dual functional NBD-fluorophore-incorporated naphthalene diimide derivatives as G-quadruplex ligands” (Bioorg Med Chem Lett, 2024).

The source made the active and inactive calls. No cut-off for these calls is given here.

One assay relates to MIA PaCa-2. Nature of the assay: Cytotoxicity against human MIA PaCa-2 cells assessed as inhibition of cell growth by CellTiter-Glo assay. It is filed as functional, cell-based. A general note: ATP-based viability assays read luminescence as a measure of living cells.
The test system of assay [1] is Quadruplex DNA. Kind of assay: Binding affinity to human telomeric G-quadruplex HT21 DNA assessed as increase in fluorescence intensity at 5 uM by fluorescence emission spectra analysis. The format is nucleic-acid assay.
Assay [2] addresses Quadruplex DNA. Nature of the assay: Binding affinity to human telomeric G-quadruplex HT21 DNA assessed as dissociation constant by fluorescence titration spectra analysis. It is filed as nucleic-acid assay.
Assay [3] deals with Quadruplex DNA. Kind of assay: Binding affinity to human telomeric G-quadruplex HT21 DNA assessed as increase in CD signal at 15 uM at 290 nm wavelength by circular dichroism spectroscopic analysis. It is filed as nucleic-acid assay.
The subject of assay [4] is Quadruplex DNA. Kind of assay: Binding affinity to human telomeric G-quadruplex HT21 DNA assessed as increase in CD signal at 15 uM at 235 nm wavelength by circular dichroism spectroscopic analysis. The format is nucleic-acid assay. Background: Circular dichroism is widely used to follow secondary structure.
Assay [5] deals with Quadruplex DNA. Kind of assay: Binding affinity to human telomeric G-quadruplex HT21 DNA assessed as increase in CD signal at 15 uM at 250 nm wavelength by circular dichroism spectroscopic analysis. The format is nucleic-acid assay.

As a reminder, the IC50 is the point on the concentration scale where inhibition reaches its midpoint. Broadly, the Kd is a measure of binding affinity in units of concentration.

On to `O=C(CNc1cc2c3c(ccc4c3c1C(=O)N(CCCN1CCOCC1)C4=O)C(=O)N(CCCN1CCOCC1)C2=O)NCC1CCN(c2ccc([N+](=O)[O-])c3nonc23)CC1`, for which the IC50 with MIA PaCa-2 was determined as 364 nM. For the same compound, the outcome with Quadruplex DNA [1] was Active. The Kd on Quadruplex DNA [2] was 600 nM.

As to `O=C1c2ccc3c4c(c(NCC5CCN(c6ccc([N+](=O)[O-])c7nonc67)CC5)cc(c24)C(=O)N1CCCN1CCOCC1)C(=O)N(CCCN1CCOCC1)C3=O`, in the assay on MIA PaCa-2, the IC50 was 359 nM. In addition, the result in the assay on Quadruplex DNA [1] was inactive.

For `O=C1c2ccc3c4c(c(NCCN5CCCC5)cc(c24)C(=O)N1CCCN1CCOCC1)C(=O)N(CCCN1CCOCC1)C3=O`, the concentration for half-maximal inhibition (IC50) in the assay with MIA PaCa-2 was 9.6 nM.

Regarding `O=C1c2ccc3c4c(c(NCCN5CCN(c6ccc([N+](=O)[O-])c7nonc67)CC5)cc(c24)C(=O)N1CCCN1CCOCC1)C(=O)N(CCCN1CCOCC1)C3=O`, in the assay with MIA PaCa-2, the IC50 stood at 77.9 nM. The result with Quadruplex DNA [1] and with Quadruplex DNA [3] was Active. In addition, on Quadruplex DNA [2], the Kd is 1720 nM. Further, the result in the assay on Quadruplex DNA [4] and with Quadruplex DNA [5] was inactive.
